Measurements: patent US9119886B2, “Immunoconjugates for the treatment of tumours” (MolMed SpA, priority 2002, dated 2015)

B1: NGR-TNF: TNF fused with the C-terminus of CNGRCG; human or murine form not specified at the place (Example 15 used NGR-mTNF) (protein)
chain: CNGRCGMSTESMIRDVELAEEALPQKMGGFQNSRRCLCLSLFSFLLVAGATTLFCLLNFGVIGPQRDEKFPNGLPLISSMAQTLTLRSSSQNSSDKPVAHVVANHQVEEQLEWLSQRANALLANGMDLKDNQLVVPADGLYLVYSQVLFKGQGCPDYVLLTHTVSRFAISYQEKVNLLSAVKSPCPKDTPEGAELKPWYEPIYLGGVFQLEKGDQLSAEVNLPKYLDFAESGQVYFGVIAL

Tests used:
B16F1 melanoma = assay: anti-tumor activity (tumor growth) in B16F1 melanoma-bearing mice; type: in vivo, C57BL/6 mice
Description: C57BL/6 mice (Charles River Laboratories, Calco, Italy) weighing 16-18 g were challenged with subcutaneous injection in the left flank of 5×10^4 RMA-T or B16F1 living cells; 4-12 days later, the mice were treated with TNF or NGR-TNF solutions (100 μl) followed 2 hours later by administration of melphalan or doxorubicin solution (100 μl). Unless specified, all drugs were administered intraperitoneally (i.p.). All drugs were diluted with 0.9% sodium chloride, containing 100 μg/ml endotoxin-free human serum albumin (Farma-Biagini, Lucca, Italy), except for doxorubicin, which was diluted with 0.9% sodium chloride alone. Tumor growth was monitored daily by measuring the tumors with calipers as previously described (20). Animals were sacrificed before the tumors reached 1.0-1.5 cm in diameter. Tumor sizes are shown as mean±SE (5 animals/group).
We then investigated whether targeted delivery of low doses of NGR-mTNF to tumor vessles could enhance the anti-tumor activity of chemotherapeutic drugs.

B16F1 cells = assay: 48 hour in vitro cytotoxicity assay on cultured B16F1 cells; type: cell-based, mouse
From the text: To assess whether the synergism depends directly on cytotoxicity against tumor cells we measured the effect of each compound, alone or in combination, on cultured B16F1 cells.

RMA-T lymphoma = assay: anti-tumor activity (tumor growth) in RMA-T lymphoma-bearing mice; type: in vivo, C57BL/6 mice; conditions: RMA-T tumors, treatment at day 10, picogram doses

| Molecule | effect on tumor growth, single agent (B16F1 melanoma; melphalan 90 μg, mTNF or NGR-mTNF 0.1 ng i.p.) | killing of cultured cells (B16F1 cells) | enhancement of therapeutic effect of cisplatinum (RMA-T lymphoma) | dose sufficient to enhance the anti-tumor activity of melphalan and doxorubicin (B16F1 melanoma; systemic administration to mice) [µg/kg] |
| --- | --- | --- | --- | --- |
| N[C@@H](Cc1ccc(N(CCCl)CCCl)cc1)C(=O)O [Melphalan] | unable to effect the growth of tumors | Neither melphalan or NGR-mTNF, alone or in combination, killed these cells |  |  |
| B1 |  |  | sufficient to enhance the therapeutic effect of cisplatinum | 0.003 to 0.005 |
